According to PubChem BioAssay AID248 (DTP/NCI, 2004):
Where “and” joins values, the source holds several entries; their conditions need not be identical. Identical values can stand only once. Toxic doses and inconclusive results are not listed. Cut-off read from the data, not from the text of the source: active = T/C of 150% or more; inactive = T/C below 125%.

Tested on: L1210 leukemia ip in BDF1 mice, survival T/C
Test: NCI In Vivo Anticancer Drug Screen. Data for tumor model L1210 Leukemia (intraperitoneal) in B6D2F1 (BDF1) mice
Conditions: endpoint: mean survival time, higher = longer survival
Protocol: The antitumor activity of compounds was measured in mice bearing transplantable tumors. Survival or tumor size were measured and the results are expressed as the measurement made in the treated group (T) divided by the measurement made in the vehicle treated control group (C). The tumor model used in this assay is L1210 Leukemia (intraperitoneal) in B6D2F1 (BDF1) mice

[1] = dose: 100.0 mg/kg/injection, schedule: Q01DX009 (ip), vehicle: saline
[2] = dose: 100.0 mg/kg/injection, schedule: Q04DX003 (ip), vehicle: saline
[3] = dose: 200.0 mg/kg/injection, schedule: Q04DX003 (ip), vehicle: saline
[4] = dose: 100.0 mg/kg/injection, schedule: Q01DX009 (ip), vehicle: saline with Tween-80
[5] = dose: 100.0 mg/kg/injection, schedule: Q04DX003 (ip), vehicle: saline with Tween-80
[6] = dose: 200.0 mg/kg/injection, schedule: Q01DX009 (ip), vehicle: saline with Tween-80
[7] = dose: 200.0 mg/kg/injection, schedule: Q04DX003 (ip), vehicle: saline with Tween-80
[8] = dose: 400.0 mg/kg/injection, schedule: Q01DX009 (ip), vehicle: saline with Tween-80
[9] = dose: 100.0 mg/kg/injection, schedule: Q01DX009 (ip), vehicle: Klucel (hydroxypropylcellulose) (HPC)
[10] = dose: 100.0 mg/kg/injection, schedule: Q04DX002 (ip), vehicle: Klucel (hydroxypropylcellulose) (HPC)
[11] = dose: 200.0 mg/kg/injection, schedule: Q01DX009 (ip), vehicle: Klucel (hydroxypropylcellulose) (HPC)
[12] = dose: 200.0 mg/kg/injection, schedule: Q04DX002 (ip), vehicle: Klucel (hydroxypropylcellulose) (HPC)
[13] = dose: 400.0 mg/kg/injection, schedule: Q01DX009 (ip), vehicle: Klucel (hydroxypropylcellulose) (HPC)
[14] = dose: 400.0 mg/kg/injection, schedule: Q04DX002 (ip), vehicle: Klucel (hydroxypropylcellulose) (HPC)
[15] = dose: 100.0 mg/kg/injection, schedule: Q01DX001 (ip), vehicle: saline
[16] = dose: 200.0 mg/kg/injection, schedule: Q01DX001 (ip), vehicle: saline
[17] = dose: 400.0 mg/kg/injection, schedule: Q01DX001 (ip), vehicle: saline

Measured: T/C

CC(/C=C/c1ccccc1)=N\O
inactive: dose: 100.0 mg/kg/injection, schedule: Q01DX009 (ip), vehicle: saline sonified 91 % of control | dose: 200.0 mg/kg/injection, schedule: Q01DX009 (ip), vehicle: saline sonified 94 % of control | dose: 400.0 mg/kg/injection, schedule: Q01DX009 (ip), vehicle: saline sonified 100 % of control

COc1ccc(NC(=O)Nc2cc(Cl)ccc2OC)c(Cl)c1
inactive: [1] 100 % of control | [2] 104 % of control | dose: 200.0 mg/kg/injection, schedule: Q01DX009 (ip), vehicle: saline 93 % of control | [3] 98 % of control | dose: 400.0 mg/kg/injection, schedule: Q01DX009 (ip), vehicle: saline 88 % of control | dose: 400.0 mg/kg/injection, schedule: Q04DX003 (ip), vehicle: saline 101 % of control

COc1cc2c(c(OC)c1OC)-c1ccc(OC)c(=O)cc1C(NC(=S)Nc1ccccc1)CC2 (stereo unspecified)
inactive: dose: 62.5 mg/kg/injection, schedule: Q01DX009 (ip), vehicle: other 104 % of control | dose: 125.0 mg/kg/injection, schedule: Q01DX009 (ip), vehicle: other 98 % of control | dose: 250.0 mg/kg/injection, schedule: Q01DX009 (ip), vehicle: other 103 % of control

O=C1C[C@@H](c2ccc(O)cc2)[C@@]2(O1)C(=O)O[C@H]([C@@H](O)CO)[C@@H]2O
inactive: dose: 75.0 mg/kg/injection, schedule: Q01DX001 (ip), vehicle: saline 98 % of control | dose: 75.0 mg/kg/injection, schedule: Q01DX009 (ip), vehicle: saline 96 % of control | dose: 75.0 mg/kg/injection, schedule: Q04DX003 (ip), vehicle: saline 95 % of control | dose: 150.0 mg/kg/injection, schedule: Q01DX001 (ip), vehicle: saline 96 % of control | dose: 150.0 mg/kg/injection, schedule: Q01DX009 (ip), vehicle: saline 93 % of control | dose: 150.0 mg/kg/injection, schedule: Q04DX003 (ip), vehicle: saline 98 % of control | dose: 300.0 mg/kg/injection, schedule: Q01DX001 (ip), vehicle: saline 97 % of control | dose: 300.0 mg/kg/injection, schedule: Q01DX009 (ip), vehicle: saline 100 % of control | dose: 300.0 mg/kg/injection, schedule: Q04DX003 (ip), vehicle: saline 94 % of control

O=S(=O)(NO)c1ccccc1
inactive: [4] 98 % of control | [5] 98 % of control | [6] 96 % of control | [7] 100 % of control | [8] 98 % of control | dose: 400.0 mg/kg/injection, schedule: Q04DX003 (ip), vehicle: saline with Tween-80 98 % of control

N#CCC(=O)Nc1ccccc1
inactive: [9] 95 % of control | [10] 109 % of control | [11] 103 % of control | [12] 109 % of control | [13] 114 % of control | [14] 106 % of control

COc1cc(/C(C)=N\N(C)C)ccc1O
inactive: dose: 50.0 mg/kg/injection, schedule: Q01DX001 (ip), vehicle: saline 100 % of control | [15] 96 % of control | [16] 100 % of control | [17] 96 % of control

CC1(C)CC(=O)C=C(NCc2ccccc2)C1
inactive: dose: 50.0 mg/kg/injection, schedule: Q01DX009 (ip), vehicle: acetone 96 % of control | dose: 100.0 mg/kg/injection, schedule: Q01DX009 (ip), vehicle: acetone 95 % of control | dose: 200.0 mg/kg/injection, schedule: Q01DX009 (ip), vehicle: acetone 101 % of control

O=C(O)c1cc(Cl)c(Cl)cc1Cl
inactive: dose: 50.0 mg/kg/injection, schedule: Q01DX009 (ip), vehicle: saline 104 % of control | [15] 93 % of control | [1] 98 % of control | [2] 100 % of control | [16] 86 % of control | [3] 102 % of control | [17] 94 % of control

CCCNS(=O)(=O)c1ccc(C(=S)OCC)cc1
inactive: dose: 100.0 mg/kg/injection, schedule: Q01DX001 (ip), vehicle: Klucel (hydroxypropylcellulose) (HPC) 98 % of control | dose: 200.0 mg/kg/injection, schedule: Q01DX001 (ip), vehicle: Klucel (hydroxypropylcellulose) (HPC) 98 % of control | dose: 400.0 mg/kg/injection, schedule: Q01DX001 (ip), vehicle: Klucel (hydroxypropylcellulose) (HPC) 94 % of control

O=C(O)c1cscn1
inactive: [15] 93 % of control | [4] 101 % of control and 90 % of control | dose: 100.0 mg/kg/injection, schedule: Q04DX002 (ip), vehicle: saline with Tween-80 97 % of control and 107 % of control | [5] 108 % of control | [16] 103 % of control | [6] 95 % of control and 97 % of control | dose: 200.0 mg/kg/injection, schedule: Q04DX002 (ip), vehicle: saline with Tween-80 97 % of control and 106 % of control | [7] 98 % of control | [17] 93 % of control | [8] 92 % of control | dose: 400.0 mg/kg/injection, schedule: Q04DX002 (ip), vehicle: saline with Tween-80 102 % of control and 92 % of control

O=C1c2cc([N+](=O)[O-])ccc2SC2C=CSC12 (stereo unspecified)
inactive: dose: 100.0 mg/kg/injection, schedule: Q01DX001 (ip), vehicle: carboxymethylcellulose (CMC) 94 % of control | dose: 200.0 mg/kg/injection, schedule: Q01DX001 (ip), vehicle: carboxymethylcellulose (CMC) 108 % of control | dose: 400.0 mg/kg/injection, schedule: Q01DX001 (ip), vehicle: carboxymethylcellulose (CMC) 100 % of control

NC(CC1CCCCC1)C(=O)O (stereo unspecified)
inactive: [10] 91 % of control | [12] 88 % of control | [14] 91 % of control

CCCCCCCC/C(C=O)=C\c1ccc(C)cc1
inactive: [15] 86 % of control | [16] 102 % of control | [17] 87 % of control

O=C(Nc1ccc(F)cc1)OCCOc1ccc(Br)cc1
inactive: [9] 95 % of control | [11] 98 % of control | [13] 102 % of control

O=c1cc(NCc2ccccc2Cl)[nH]c(=O)[nH]1
inactive: dose: 100.0 mg/kg/injection, schedule: Q01DX001 (ip), vehicle: gum acacia 93 % of control | dose: 200.0 mg/kg/injection, schedule: Q01DX001 (ip), vehicle: gum acacia 95 % of control | dose: 400.0 mg/kg/injection, schedule: Q01DX001 (ip), vehicle: gum acacia 101 % of control

NNC(=O)NN
inactive: [4] 87 % of control | [6] 90 % of control | [8] 87 % of control

CCCCC(=O)C1CN(C(C)(C)C)C1
inactive: dose: 5.0 mg/kg/injection, schedule: Q01DX001 (ip), vehicle: saline 102 % of control | dose: 5.0 mg/kg/injection, schedule: Q01DX009 (ip), vehicle: saline 104 % of control | dose: 10.0 mg/kg/injection, schedule: Q01DX001 (ip), vehicle: saline 97 % of control | dose: 10.0 mg/kg/injection, schedule: Q01DX009 (ip), vehicle: saline 111 % of control | dose: 20.0 mg/kg/injection, schedule: Q01DX001 (ip), vehicle: saline 102 % of control | dose: 20.0 mg/kg/injection, schedule: Q01DX009 (ip), vehicle: saline 97 % of control

CC(C)C1CCC(C)C(OB(OC2CC(C(C)C)CCC2C)OC2CC(C(C)C)CCC2C)C1 (stereo unspecified)
inactive: dose: 100.0 mg/kg/injection, schedule: Q04DX003 (ip), vehicle: Klucel (hydroxypropylcellulose) (HPC) 88 % of control | dose: 200.0 mg/kg/injection, schedule: Q04DX003 (ip), vehicle: Klucel (hydroxypropylcellulose) (HPC) 99 % of control | dose: 400.0 mg/kg/injection, schedule: Q04DX003 (ip), vehicle: Klucel (hydroxypropylcellulose) (HPC) 88 % of control

O=C1C=CC(=O)N1c1ccc(Cl)cc1 (tested in a mixture with another compound)
inactive: dose: 100.0 mg/kg/injection, schedule: Q04DX003 (ip), vehicle: acetone 94 % of control | dose: 200.0 mg/kg/injection, schedule: Q04DX003 (ip), vehicle: acetone 103 % of control | dose: 400.0 mg/kg/injection, schedule: Q04DX003 (ip), vehicle: acetone 87 % of control
